pIC50: −log10 of the molar value.
Each compound was assayed against T1, Axl (Homo sapiens, UniProt P30530) (assay: Phospho-Akt In-Cell Western Assay (inhibition of Axl activity after Axl-antibody cross-linking)). Conditions: inhibition of Axl activity; Table 1, compounds of formula (Ia); read-out: IC50.
T1 construct: endogenous in cells; host or cells: HeLa cells
T1 sequence (P30530 26-894): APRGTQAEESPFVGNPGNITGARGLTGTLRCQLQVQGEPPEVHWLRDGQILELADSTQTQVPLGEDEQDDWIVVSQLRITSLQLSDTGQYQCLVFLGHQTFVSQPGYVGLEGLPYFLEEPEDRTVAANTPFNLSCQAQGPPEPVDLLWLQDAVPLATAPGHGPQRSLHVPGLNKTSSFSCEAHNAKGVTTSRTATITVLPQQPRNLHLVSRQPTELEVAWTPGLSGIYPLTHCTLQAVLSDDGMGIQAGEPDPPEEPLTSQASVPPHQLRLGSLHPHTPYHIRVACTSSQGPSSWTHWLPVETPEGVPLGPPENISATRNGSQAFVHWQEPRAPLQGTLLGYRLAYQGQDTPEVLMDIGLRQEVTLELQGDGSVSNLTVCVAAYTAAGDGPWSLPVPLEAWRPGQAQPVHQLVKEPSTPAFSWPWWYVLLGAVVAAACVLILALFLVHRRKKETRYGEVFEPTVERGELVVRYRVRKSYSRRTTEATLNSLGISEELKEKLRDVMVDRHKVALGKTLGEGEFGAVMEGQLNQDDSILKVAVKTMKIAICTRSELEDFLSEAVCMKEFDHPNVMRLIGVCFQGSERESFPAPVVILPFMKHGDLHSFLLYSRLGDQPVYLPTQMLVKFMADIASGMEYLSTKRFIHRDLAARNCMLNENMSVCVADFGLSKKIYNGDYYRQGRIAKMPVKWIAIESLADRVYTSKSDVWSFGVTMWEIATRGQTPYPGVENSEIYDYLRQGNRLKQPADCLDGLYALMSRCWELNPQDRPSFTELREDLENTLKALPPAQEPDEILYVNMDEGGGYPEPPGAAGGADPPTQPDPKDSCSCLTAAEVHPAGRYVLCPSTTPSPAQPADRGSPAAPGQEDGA
Assay type: cell-based
How it was run: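 Phospho-Akt was detected in formaldehyde-fixed cells by in-cell immunostaining with HRP chemiluminescence. Before fixation, HeLa cells kept 24 h in low-serum medium containing 500 ng/mL Axl/Fc received compound for 1 h at 37 °C, followed by 5-min Axl activation through antibody clustering.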
In the case of `Nc1nc(Nc2ccc(N3CCN(CC4CC4)CC3)c(F)c2)nn1-c1cc2c(nn1)-c1ccccc1CCC2` [Compound 214, 1-(6,7-dihydro-5H-benzo[6,7]cyclohepta[1,2-c]pyridazin-3-yl)-N^3-(3-fluoro-4-(4-cyclopropylmethylpiperazin-1-yl)phenyl)-1H-1,2,4-triazole-3,5-diamine], the pIC50 was over 6.00.
Work on `CN1CCC(N2CCc3ccc(Nc4nc(N)n(-c5cc6c(nn5)-c5ccccc5CCC6)n4)cc3C2)CC1` [Compound 215, 1-(6,7-dihydro-5H-benzo[6,7]cyclohepta[1,2-c]pyridazin-3-yl)-N^3-(2-(1-methylpiperidin-4-yl)-1,2,3,4-tetrahydroisoquinolin-7-yl)-1H-1,2,4-triazole-3,5-diamine] yielded a pIC50 of over 6.00.
`Nc1nc(Nc2ccc3c(c2)CN(CC2CC2)CC3)nn1-c1cc2c(nn1)-c1ccccc1CCC2` [Compound 216, 1-(6,7-dihydro-5H-benzo[6,7]cyclohepta[1,2-c]pyridazin-3-yl)-N^3-(2-(cyclopropylmethyl)-1,2,3,4-tetrahydroisoquinolin-7-yl)-1H-1,2,4-triazole-3,5-diamine] gave a pIC50 of over 6.00.
Compound `Nc1nc(Nc2ccc3c(c2)CCC(N2CC[C@H](F)C2)CC3)nn1-c1cc2c(nn1)-c1ccccc1CCC2` (stereo partly drawn) [Compound 217, 1-(6,7-dihydro-5H-benzo[6,7]cyclohepta[1,2-c]pyridazin-3-yl)-N^3-(7-(3-(S)-fluoropyrrolidin-1-yl)-6,7,8,9-tetrahydro-5H-benzo[7]annulene-2-yl)-1H-1,2,4-triazole-3,5-diamine] has a pIC50 of over 6.00.
`C[C@H]1CCCN1C1CCc2ccc(Nc3nc(N)n(-c4cc5c(nn4)-c4ccccc4CCC5)n3)cc2CC1` (stereo partly drawn) [Compound 218, 1-(6,7-dihydro-5H-benzo[6,7]cyclohepta[1,2-c]pyridazin-3-yl)-N^3-(7-(2-(S)-methylpyrrolidin-1-yl)-6,7,8,9-tetrahydro-5H-benzo[7]annulene-2-yl)-1H-1,2,4-triazole-3,5-diamine] was tested, and the pIC50 was over 6.00.
With `Nc1nc(Nc2ccc3c(c2)CCC(N2CC[C@@H](O)C2)CC3)nn1-c1cc2c(nn1)-c1ccccc1CCC2` (stereo partly drawn) [Compound 219, 1-(6,7-dihydro-5H-benzo[6,7]cyclohepta[1,2-c]pyridazin-3-yl)-N^3-(7-(3-(R)-hydroxypyrrolidin-1-yl)-6,7,8,9-tetrahydro-5H-benzo[7]annulene-2-yl)-1H-1,2,4-triazole-3,5-diamine] the pIC50 was over 6.00.
Work on `C[C@@H]1CCCN1C1CCc2ccc(Nc3nc(N)n(-c4cc5c(nn4)-c4ccccc4CCC5)n3)cc2CC1` (stereo partly drawn) [Compound 220, 1-(6,7-dihydro-5H-benzo[6,7]cyclohepta[1,2-c]pyridazin-3-yl)-N^3-(7-(2-(R)-methylpyrrolidin-1-yl)-6,7,8,9-tetrahydro-5H-benzo[7]annulene-2-yl)-1H-1,2,4-triazole-3,5-diamine] yielded a pIC50 of over 6.00.
`Nc1nc(Nc2ccc3c(c2)CCC(N2CC[C@H](O)C2)CC3)nn1-c1cc2c(nn1)-c1ccccc1CCC2` (stereo partly drawn) [Compound 221, 1-(6,7-dihydro-5H-benzo[6,7]cyclohepta[1,2-c]pyridazin-3-yl)-N^3-(7-(3-(S)-hydroxypyrrolidin-1-yl)-6,7,8,9-tetrahydro-5H-benzo[7]annulene-2-yl)-1H-1,2,4-triazole-3,5-diamine] gave a pIC50 of over 6.00.
In the case of `Nc1nc(Nc2ccc3c(c2)CCC(N2CC[C@@H](F)C2)CC3)nn1-c1cc2c(nn1)-c1ccccc1CCC2` (stereo partly drawn) [Compound 222, 1-(6,7-dihydro-5H-benzo[6,7]cyclohepta[1,2-c]pyridazin-3-yl)-N^3-(7-(3-(R)-fluoropyrrolidin-1-yl)-6,7,8,9-tetrahydro-5H-benzo[7]annulene-2-yl)-1H-1,2,4-triazole-3,5-diamine], the pIC50 was over 6.00.
Compound `Nc1nc(Nc2ccc3c(c2)CCC(=O)CC3)nn1-c1cc2c(nn1)-c1ccccc1CCC2` [Compound 223, 1-(6,7-dihydro-5H-benzo[6,7]cyclohepta[1,2-c]pyridazin-3-yl)-N^3-(7-oxo-6,7,8,9-tetrahydro-5H-benzo[7]annulene-2-yl)-1H-1,2,4-triazole-3,5-diamine] has a pIC50 of over 6.00.
Work on `Nc1nc(Nc2ccc3c(c2)CCC(NC2CCCCC2)CC3)nn1-c1cc2c(nn1)-c1ccccc1CCC2` (stereo not shown) [Compound 224, 1-(6,7-dihydro-5H-benzo[6,7]cyclohepta[1,2-c]pyridazin-3-yl)-N^3-(7-cyclohexylamino-6,7,8,9-tetrahydro-5H-benzo[7]annulene-2-yl)-1H-1,2,4-triazole-3,5-diamine] yielded a pIC50 of over 6.00.
Compound `Nc1nc(Nc2ccc3c(c2)CCC(NC2CC2)CC3)nn1-c1cc2c(nn1)-c1ccccc1CCC2` (stereo not shown) [Compound 225, 1-(6,7-dihydro-5H-benzo[6,7]cyclohepta[1,2-c]pyridazin-3-yl)-N^3-(7-cyclopropylamino-6,7,8,9-tetrahydro-5H-benzo[7]annulene-2-yl)-1H-1,2,4-triazole-3,5-diamine] has a pIC50 of over 6.00.
`Nc1nc(Nc2ccc3c(c2)CCC(O)CC3)nn1-c1cc2c(nn1)-c1ccccc1CCC2` (stereo not shown) [Compound 226, 1-(6,7-dihydro-5H-benzo[6,7]cyclohepta[1,2-c]pyridazin-3-yl)-N^3-(7-hydroxy-6,7,8,9-tetrahydro-5H-benzo[7]annulene-2-yl)-1H-1,2,4-triazole-3,5-diamine] was tested, and the pIC50 was over 6.00.
In the case of `CN1CCN(C2CCc3ccc(Nc4nc(N)n(-c5cc6c(nn5)-c5ccccc5CCC6)n4)cc3CC2)CC1` (stereo not shown) [Compound 227, 1-(6,7-dihydro-5H-benzo[6,7]cyclohepta[1,2-c]pyridazin-3-yl)-N^3-(7-(4-methylpiperazin-1-yl)-6,7,8,9-tetrahydro-5H-benzo[7]annulene-2-yl)-1H-1,2,4-triazole-3,5-diamine], the pIC50 was over 6.00.
With `Nc1nc(Nc2ccc3c(c2)CCC(NCC2CCCO2)CC3)nn1-c1cc2c(nn1)-c1ccccc1CCC2` (stereo not shown) [Compound 228, 1-(6,7-dihydro-5H-benzo[6,7]cyclohepta[1,2-c]pyridazin-3-yl)-N^3-(7-(tetrahydrofuran-2-ylmethyl)amino-6,7,8,9-tetrahydro-5H-benzo[7]annulene-2-yl)-1H-1,2,4-triazole-3,5-diamine] the pIC50 was over 6.00.
`Nc1nc(Nc2ccc3c(c2)CCC(NC2CCC2)CC3)nn1-c1cc2c(nn1)-c1ccccc1CCC2` (stereo not shown) [Compound 229, 1-(6,7-dihydro-5H-benzo[6,7]cyclohepta[1,2-c]pyridazin-3-yl)-N^3-(7-cyclobutylamino-6,7,8,9-tetrahydro-5H-benzo[7]annulene-2-yl)-1H-1,2,4-triazole-3,5-diamine] was tested, and the pIC50 was over 6.00.
Compound `Nc1nc(Nc2ccc3c(c2)CCC(NCC2CC2)CC3)nn1-c1cc2c(nn1)-c1ccccc1CCC2` (stereo not shown) [Compound 230, 1-(6,7-dihydro-5H-benzo[6,7]cyclohepta[1,2-c]pyridazin-3-yl)-N^3-(7-(cyclopropylmethyl)amino-6,7,8,9-tetrahydro-5H-benzo[7]annulene-2-yl)-1H-1,2,4-triazole-3,5-diamine] has a pIC50 of over 6.00.
Work on `CCN(CC)CCN(C)C1CCc2ccc(Nc3nc(N)n(-c4cc5c(nn4)-c4ccccc4CCC5)n3)cc2CC1` (stereo not shown) [Compound 231, 1-(6,7-dihydro-5H-benzo[6,7]cyclohepta[1,2-c]pyridazin-3-yl)-N^3-(7-(2-(diethylamino)ethyl)methyl-amino-6,7,8,9-tetrahydro-5H-benzo[7]annulene-2-yl)-1H-1,2,4-triazole-3,5-diamine] yielded a pIC50 of over 6.00.
`Nc1nc(Nc2ccc3c(c2)CCC(N2CCC(N4CCCC4)CC2)CC3)nn1-c1cc2c(nn1)-c1ccccc1CCC2` (stereo not shown) [Compound 232, 1-(6,7-dihydro-5H-benzo[6,7]cyclohepta[1,2-c]pyridazin-3-yl)-N^3-(7-(4-pyrrolidin-1-ylpiperidin-1-yl)-6,7,8,9-tetrahydro-5H-benzo[7]annulene-2-yl)-1H-1,2,4-triazole-3,5-diamine] showed a pIC50 of over 6.00.
`Nc1nc(Nc2ccc3c(c2)CCC(N2CCC(CN4CCCCC4)CC2)CC3)nn1-c1cc2c(nn1)-c1ccccc1CCC2` (stereo not shown) [Compound 233, 1-(6,7-dihydro-5H-benzo[6,7]cyclohepta[1,2-c]pyridazin-3-yl)-N^3-(7-(4-(piperidin-1-ylmethyl)piperidin-1-yl)-6,7,8,9-tetrahydro-5H-benzo[7]annulene-2-yl)-1H-1,2,4-triazole-3,5-diamine] gave a pIC50 of over 6.00.
Work on `Nc1nc(Nc2ccc3c(c2)CCC(N)CC3)nn1-c1cc2c(nn1)-c1ccccc1CCC2` (stereo not shown) [Compound 234, 1-(6,7-dihydro-5H-benzo[6,7]cyclohepta[1,2-c]pyridazin-3-yl)-N^3-(7-amino-6,7,8,9-tetrahydro-5H-benzo[7]annulene-2-yl)-1H-1,2,4-triazole-3,5-diamine] yielded a pIC50 of over 6.00.
`CN(C)CCNC1CCc2ccc(Nc3nc(N)n(-c4cc5c(nn4)-c4ccccc4CCC5)n3)cc2CC1` (stereo not shown) [Compound 235] showed a pIC50 of over 6.00.
